The values below come from publication PMC11768664 (Viruses, 2024).

≈ marks a conversion by molar mass, not a printed value. Where “and” joins values, the source holds several entries; their conditions need not be identical. Identical values can stand only once. Like-named read-outs stand apart in the source and are kept apart here.

Series [1] concerns W12I 20862 cervical precancer cells. As to the kind of experiment: Growth inhibition MTT assay on W12 clone 20862 (type 2 integrant). In kind it is cell-based. (In general: Tetrazolium dyes change colour on reduction, which living cells bring about.)
The test system of series [2] is W12I 20861 cervical precancer cells. Description: Growth inhibition MTT assay on W12 clone 20861 (type 2 integrant). To be noted: 120 h, read-out: IC50, growth inhibitory activity on W12 clone 20861. The series is classed as cell-based.
In series [3] the test system is W12E 20850 cervical precancer cells. As to the kind of experiment: Growth inhibition MTT assay on W12 clone 20850 (episomal HPV16). The series is classed as cell-based. To be noted: for IC50: 120 h, read-out: IC50, growth inhibitory activity on W12 clone 20850.
Series [4] has as its system W12I 20822 cervical precancer cells. As to the kind of experiment: Growth inhibition MTT assay on W12 clone 20822 (type 1 integrant). In kind it is cell-based.
The next series relates to HT29 colon cancer cells. As to the kind of experiment: Growth inhibition (proliferation) MTT assay on HT29 cells. To be noted: Homo sapiens. The series is classed as cell-based.
Series [5] concerns HeLa human cervical cancer cells. Description: Growth inhibition (proliferation) MTT assay on HeLa cells. The series is classed as cell-based. To be noted: for IC50: Homo sapiens.
In the next series the target is Na^+/K^+-ATPase. On the set-up: method as in earlier work. To be noted: read-out: IC50, inhibition of the activity of the Na+/K+-ATPase, cited from earlier work.
Series [6] relates to cell cycle genes in HeLa cells. Description: Gene expression analysis of HeLa cells treated with curcumin. In kind it is cell-based, human. The following applies: curcumin 32 µM, 8 h.
Series [7] deals with J2 3T3 mouse embryo fibroblasts (feeder cells). Description: Growth inhibition MTT assay on 3T3 feeder cells. To be noted: NIH3T3, read-out: IC50, growth inhibitory activity on 3T3 feeder cells. The series is classed as cell-based.
Series [8] deals with HeLa human cervical cancer cells. Description: Combination growth inhibition assay and Combination Index on HeLa cells. The series is classed as cell-based.
Setting [9] is: 120 h, read-out: IC50, growth inhibitory activity on W12 clone 20862.
The mark [10] stands for this setting: 120 h, read-out: IC50, growth inhibitory activity on W12 clone 20822.
Setting [11] is: HT-29, HT29, MTT, 96 h (Figure 1 legend; table footnote prints 120 h), read-out: IC50, growth inhibitory activity on HT29 cells.
The mark [12] stands for this setting: MTT, 96 h (Figure 1 legend; table footnote prints 120 h), read-out: IC50, growth inhibitory activity on HeLa cells.

Regarding `COC1=CC(=O)O[C@@H](CCc2ccc3c(c2)OCO3)C1` [DHM, dihydromethysticin], the IC50 in [1] (setting [9]) worked out at 12.8 µg/mL; in series [2], 12.4 µg/mL (≈ 44.9 µM); in series [3] it was 24.7 µg/mL (≈ 89.4 µM); in series [4] (setting [10]), 10.2 µg/mL.

As for `CC(=O)O[C@@H]1C[C@@]23C[C@@]24CC[C@H](O[C@@H]2OC[C@@H](O)[C@H](O)[C@H]2O)C(C)(C)[C@@H]4CC[C@H]3[C@]2(C)C[C@@H]3O[C@]4(C[C@@H](C)[C@@H]3[C@@]12C)O[C@H](O)[C@@]1(C)O[C@@H]41` [actein], the IC50 is 36.3 µg/mL in series [1] (setting [9]), 37.9 µg/mL (≈ 56 µM) in [2], 41.7 µg/mL (≈ 61.6 µM) in [3] and 55.7 µg/mL in series [4] (setting [10]).

Consider `CC(C)c1cc2c(c(O)c1O)[C@@]1(C(=O)O)CCCC(C)(C)[C@@H]1CC2` [carnosic acid], for which the IC50 in series [1] (setting [9]) was 10 µg/mL; in the series with HT29 colon cancer cells (setting [11]) it was 2.13 µg/mL (≈ 6.41 µM); in series [5] (setting [12]) it was 2.03 µg/mL (≈ 6.11 µM); in series [2], 14.1 µg/mL (≈ 42.4 µM); in [3], 13 µg/mL (≈ 39.1 µM); in series [4] (setting [10]), 10.7 µg/mL.

Regarding `COc1cc(/C=C/C(=O)CC(=O)/C=C/c2ccc(O)c(OC)c2)ccc1O` [curcumin], the IC50 on Na^+/K^+-ATPase (as previously described) was 2 µM. In series [6], the “Ratio, ATM (NM_000051)” value is 15.43; the “Ratio, CDC6 (NM_001254)” value came out at 2.68; the “Ratio, CDC20 (NM_016263)” value was 19.4; the “Ratio, CDKN1B (NM_004064)” value came out at 2.77. Besides, in [6], the “Ratio, E2F4 (NM_001950)” value is 2.37; the “Ratio, E2F5 (NM_001951)” value is 2.94; the “Ratio, GSK3B (NM_002093)” value is 2.09; the “Ratio, ORC1L (NM_004153)” value stood at 3.10. In series [6], the “Ratio, PLK1 (NM_005030)” value is listed as 2.01; the “Ratio, SKP2 (NM_005983)” value worked out at 5.03; the “Ratio, SMAD4 (NM_005359)” value turned out to be 3.49; the “Ratio, SMC3 (NM_005445)” value is −3.89. Moreover, in series [6], the “Ratio, STAG1 (NM_005862)” value is 2.37; the “Ratio, STAG2 (NM_001042749)” value was −3.56; the “Ratio, ZBTB17 (NM_003443)” value worked out at 2.48. Moreover, in series [6] (text prints fold), the “Ratio, ATM (NM_138292)” value is 36 and 35.94.

Turning to `C[C@H]1O[C@@H](O[C@H]2[C@@H](O)C[C@H](O[C@H]3[C@@H](O)C[C@H](O[C@H]4CC[C@@]5(C)[C@H](CC[C@@H]6[C@@H]5CC[C@]5(C)[C@@H](C7=CC(=O)OC7)CC[C@]65O)C4)O[C@@H]3C)O[C@@H]2C)C[C@H](O)[C@@H]1O` [digitoxin, reference compound], the IC50 on Na^+/K^+-ATPase (comparator, unit inferred) was less than 0.1 µM; in the series on HT29 colon cancer cells (HT-29, 96 h, read-out: Growth inhibitory Activity (ug/mL), HT29 Cells), 0.13 µg/mL (≈ 0.17 µM); in [5] (96 h, read-out: Growth inhibitory Activity (ug/mL), HeLa Cells) it was 0.12 µg/mL (≈ 0.157 µM).

With `C[C@H]1O[C@@H](O[C@H]2[C@@H](O)C[C@H](O[C@H]3[C@@H](O)C[C@H](O[C@H]4CC[C@@]5(C)[C@H](CC[C@@H]6[C@@H]5C[C@@H](O)[C@]5(C)[C@@H](C7=CC(=O)OC7)CC[C@]65O)C4)O[C@@H]3C)O[C@@H]2C)C[C@H](O)[C@@H]1O` [digoxin, reference compound], the IC50 in series [1] (setting [9]) was 0.0245 µg/mL; in the series on HT29 colon cancer cells (HT-29, read-out: IC50, growth inhibitory activity on HT29 cells), 0.13 µg/mL (≈ 0.166 µM); in series [5] (read-out: IC50, growth inhibitory activity on HeLa cells) it was 0.12 µg/mL (≈ 0.154 µM); in series [2], 0.0037 µg/mL (≈ 0.00474 µM); in [3] it was more than 0.025 µg/mL; in series [7], more than 10 µg/mL. In addition, the IC50 in series [4] (setting [10]) worked out at 0.008 µg/mL.

Take `C(=Cc1ccccc1)c1ccccc1` [stilbene]: the “IC50, growth inhibitory activity on HeLa cells” value in series [5] (MTT, 96 h (Figure 1 legend; table footnote prints 120 h)) is “greater than 100 µg/mL”.

In the case of `Cc1coc2c1C(=O)C(=O)c1c-2ccc2c1CCCC2(C)C` [tanshinone IIA], the IC50 in series [1] (type 2 integrant, 120 h, MTT, read-out: IC50, growth inhibitory activity on W12 clone 20862) was determined as 3.1 µg/mL; in series [1] (value quoted with the RT-PCR results, read-out: IC50, relative growth inhibitory effect on 20862), 2.8 µM; in the series on HT29 colon cancer cells (HT-29, Figure 1C, 96 h, MTT, read-out: Growth inhibitory Activity (ug/mL), HT29 Cells), 1.3 µg/mL (≈ 4.42 µM); in the series on HT29 colon cancer cells (setting [11]) it was 1.27 µg/mL (≈ 4.31 µM); in series [5] (Figure 1C, 96 h, MTT, read-out: Growth inhibitory Activity (ug/mL), HeLa Cells), 1.4 µg/mL (≈ 4.76 µM); in series [5] (setting [12]) it was 1.33 µg/mL (≈ 4.52 µM). The IC50 is 1.4 µg/mL (≈ 4.76 µM) in [2]; 2.3 µg/mL (≈ 7.81 µM) in series [3] (episomal, MTT); 2 µg/mL in [4] (type 1 integrant, 120 h, MTT, read-out: IC50, growth inhibitory activity on W12 clone 20822); 2.1 µM in series [4] (value quoted with the RT-PCR results, read-out: IC50, relative growth inhibitory effect on 20822). Moreover, in series [8] (tanshinone IIA 0.2 μM alone, 90% curcuminoids experiment), the “percentage of viable cells” value is 134%. The percent viable cells in series [8] (tanshinone IIA 0.2 µΜ alone, 95% curcuminoids experiment) was 91.96%. The “low concentration with significant activity on 20850 (episomal) cells” value in series [3] (p = 0.0058) is 2.5 µM.

On to lambda carrageenan, for which the “activity on 20850 cells, in words” value in [3] (after sonication, inverse pattern in a repeat experiment) is on record as “highly active”.
